Assays:
Assay in all cases: relative viability (nuclei count vs DMSO), 5 days (fraction); higher = more cells survive
NCI-H3122 = test system: NCI-H3122
In short: (§1)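 Relative viability was taken as the ratio of nuclei in treated wells to nuclei in vehicle wells. Lung cancer cell lines in 1536-well plates received compounds by pin tool one day after seeding, either one drug alone or a fixed anchor-drug dose plus five library-drug doses (not always all listed) in √10 steps. Nuclei were counted on 4× images after 5 days of treatment, and values are medians of duplicate plates.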

NCI-H1755 = test system: NCI-H1755
In short: as §1

ChaGo-K-1 = test system: ChaGo-K-1
In short: as §1

NCI-H1395 = test system: NCI-H1395
In short: as §1

HCC-366 = test system: HCC-366
In short: as §1

NCI-H2087 = test system: NCI-H2087
In short: as §1

CAL-12T = test system: CAL-12T
In short: as §1

NCI-H1734 = test system: NCI-H1734
In short: as §1

ABC-1 = test system: ABC-1
In short: as §1

NCI-H1944 = test system: NCI-H1944
In short: as §1

NCI-H1651 = test system: NCI-H1651
In short: as §1

NCI-H460 = test system: NCI-H460
In short: as §1

LU99A = test system: LU99A
In short: as §1

NCI-H2170 = test system: NCI-H2170
In short: as §1

NCI-H2405 = test system: NCI-H2405
In short: as §1

PC-3 [JPC-3] = test system: PC-3 [JPC-3]
In short: as §1

NCI-H1793 = test system: NCI-H1793
In short: as §1

RERF-LC-KJ = test system: RERF-LC-KJ
In short: as §1

HCC-78 = test system: HCC-78
In short: as §1

EPLC-272H = test system: EPLC-272H
In short: as §1

LOU-NH91 = test system: LOU-NH91
In short: as §1

LC-2-ad = test system: LC-2-ad
In short: as §1

Compound: C[C@@H]1CN(CC(=O)Nc2ccc3c(c2)Cc2cccc(-c4cc(=O)cc(N5CCOCC5)o4)c2S3)C[C@H](C)O1 + NC(=O)Nc1cc(-c2cccc(F)c2)sc1C(=O)N[C@H]1CCCNC1 [AZD7762] (partner 0.2 µM)
- relative viability (NCI-H3122; first compound 0.04 µM): 1.01
- relative viability (NCI-H3122; first compound 0.1265 µM): 0.922
- relative viability (NCI-H3122; first compound 0.4 µM): 1.05
- relative viability (NCI-H3122; first compound 4 µM): 0.733
- relative viability (NCI-H1755; first compound 0.04 µM): 0.422
- relative viability (NCI-H1755; first compound 0.1265 µM): 0.44
- relative viability (NCI-H1755; first compound 0.4 µM): 0.494
- relative viability (NCI-H1755; first compound 4 µM): 0.445
- relative viability (ChaGo-K-1; first compound 0.04 µM): 0.836
- relative viability (ChaGo-K-1; first compound 0.1265 µM): 0.855
- relative viability (ChaGo-K-1; first compound 0.4 µM): 0.847
- relative viability (ChaGo-K-1; first compound 4 µM): 0.799
- relative viability (NCI-H1395; first compound 0.1265 µM): 0.425
- relative viability (NCI-H1395; first compound 0.4 µM): 0.411
- relative viability (NCI-H1395; first compound 4 µM): 0.406
- relative viability (HCC-366; first compound 0.04 µM): 0.247
- relative viability (HCC-366; first compound 0.1265 µM): 0.253
- relative viability (HCC-366; first compound 0.4 µM): 0.163
- relative viability (HCC-366; first compound 4 µM): 0.184
- relative viability (NCI-H2087; first compound 0.04 µM): 1.26
- relative viability (NCI-H2087; first compound 0.1265 µM): 1.17
- relative viability (NCI-H2087; first compound 0.4 µM): 1.46
- relative viability (NCI-H2087; first compound 4 µM): 0.954
- relative viability (CAL-12T; first compound 0.04 µM): 0.644
- relative viability (CAL-12T; first compound 0.1265 µM): 0.565
- relative viability (CAL-12T; first compound 0.4 µM): 0.594
- relative viability (CAL-12T; first compound 4 µM): 0.38
- relative viability (NCI-H1734; first compound 0.04 µM): 0.569
- relative viability (NCI-H1734; first compound 0.1265 µM): 0.684
- relative viability (NCI-H1734; first compound 0.4 µM): 0.643
- relative viability (NCI-H1734; first compound 4 µM): 0.634
- relative viability (ABC-1; first compound 0.1265 µM): 0.742
- relative viability (ABC-1; first compound 0.4 µM): 1.52
- relative viability (ABC-1; first compound 4 µM): 0.971
- relative viability (NCI-H1944; first compound 0.1265 µM): 0.561
- relative viability (NCI-H1944; first compound 0.4 µM): 0.605
- relative viability (NCI-H1944; first compound 4 µM): 0.396
- relative viability (NCI-H1651; first compound 0.04 µM): 0.428
- relative viability (NCI-H1651; first compound 0.1265 µM): 0.405
- relative viability (NCI-H1651; first compound 0.4 µM): 0.464
- relative viability (NCI-H1651; first compound 4 µM): 0.38
- relative viability (NCI-H460; first compound 0.04 µM): 0.617
- relative viability (NCI-H460; first compound 0.1265 µM): 0.638
- relative viability (NCI-H460; first compound 0.4 µM): 0.63
- relative viability (NCI-H460; first compound 4 µM): 0.368
- relative viability (LU99A; first compound 0.04 µM): 0.334
- relative viability (LU99A; first compound 0.1265 µM): 0.472
- relative viability (LU99A; first compound 0.4 µM): 0.465
- relative viability (LU99A; first compound 4 µM): 0.363
- relative viability (NCI-H2170; first compound 0.04 µM): 0.95
- relative viability (NCI-H2170; first compound 0.1265 µM): 0.807
- relative viability (NCI-H2170; first compound 0.4 µM): 0.812
- relative viability (NCI-H2170; first compound 4 µM): 0.633
- relative viability (NCI-H2405; first compound 0.04 µM): 0.703
- relative viability (NCI-H2405; first compound 0.1265 µM): 0.795
- relative viability (NCI-H2405; first compound 0.4 µM): 0.792
- relative viability (NCI-H2405; first compound 4 µM): 0.676
- relative viability (PC-3 [JPC-3]; first compound 0.04 µM): 0.777
- relative viability (PC-3 [JPC-3]; first compound 0.1265 µM): 0.739
- relative viability (PC-3 [JPC-3]; first compound 0.4 µM): 0.796
- relative viability (PC-3 [JPC-3]; first compound 4 µM): 0.669
- relative viability (NCI-H1793; first compound 0.04 µM): 0.588
- relative viability (NCI-H1793; first compound 0.1265 µM): 0.514
- relative viability (NCI-H1793; first compound 0.4 µM): 0.404
- relative viability (NCI-H1793; first compound 4 µM): 0.25
- relative viability (RERF-LC-KJ; first compound 0.04 µM): 0.941
- relative viability (RERF-LC-KJ; first compound 0.1265 µM): 0.955
- relative viability (RERF-LC-KJ; first compound 4 µM): 0.929
- relative viability (HCC-78; first compound 0.04 µM): 0.502
- relative viability (HCC-78; first compound 0.1265 µM): 0.642
- relative viability (HCC-78; first compound 0.4 µM): 0.479
- relative viability (HCC-78; first compound 4 µM): 0.66
- relative viability (EPLC-272H; first compound 0.04 µM): 0.237
- relative viability (EPLC-272H; first compound 0.1265 µM): 0.348
- relative viability (EPLC-272H; first compound 0.4 µM): 0.226
- relative viability (EPLC-272H; first compound 4 µM): 0.321
- relative viability (LOU-NH91; first compound 0.04 µM): 0.639
- relative viability (LOU-NH91; first compound 0.1265 µM): 0.775
- relative viability (LOU-NH91; first compound 0.4 µM): 0.65
- relative viability (LOU-NH91; first compound 4 µM): 0.706
- relative viability (LC-2-ad; first compound 0.04 µM): 0.838
- relative viability (LC-2-ad; first compound 0.1265 µM): 0.758
- relative viability (LC-2-ad; first compound 0.4 µM): 0.86
- relative viability (LC-2-ad; first compound 4 µM): 0.807

Reference: the supplement of paper PMC10307832
